The values that follow come from patent publication US6589988B1, “Pharmaceutical composition with antitumor activity on the basis of carboplatin” (Pliva-Lachema, a.s., priority 1998, dated 2003).

Type in all cases: physicochemical
Data set [1] can be described thus: Decomposition rate of carboplatin in aqueous solution in dependence on the concentration of 1,1-cyclobutanedicarboxylic acid. To be noted: for decomposition rate of carboplatin (r): carboplatin 10.0 mg·ml^−1. The procedure: The rate of hydrolysis of carboplatin to a monoaquacomplex of the formula (1) has been presumed to be of the first order in relation to carboplatin concentration and independent to water concentration: [formula]
Dependences on concentration according to equations /1-2/ and /1-3/ were evaluated by linear regression and the rate constant and/or the reaction rate of the carboplatin decomposition have been calculated.
Study of the decomposition rate of carboplatin in dependence on the concentration of 1,1-cyclobutanedicarboxylic acid.
Mean starting concentration of carboplatin was 10.0 mg·ml^−1. Starting concentrations of 1,1-cyclobutanedicarboxylic acid were 0.017, 0.129, 1.189 and 14.804 mg·ml^−1. The temperature and relative humidity during storage was 25° C./60% and 35° C./60%. The vials with samples were stored stopper upright.
The decrease of carboplatin content was calculated as a difference of carboplatin content between a reference and measured sample. The concentration data were evaluated according to equation /1-2/, whereby, due to a good linear relation, the data were evaluated by linear regression.

Experiment in data set [2]: as above
The note with it: 0.1 M phosphate buffer at 37° C. versus 1.4·10^−4M CBDCA-buffer at 40° C.

Data set [3] in a line: Decomposition rates of carboplatin calculated from equation /1-7/ (Arrhenius evaluation). The note with it: for calculated decomposition rate of carboplatin (r) / rate increase: 25° C.; for calculated decomposition rate of carboplatin (r): from equation /1-7/. The procedure:
After evaluation of Arrhenius equation, the activation energy EA was calculated:
For the reference temperature of 35° C., at which the best determination coefficient has been obtained (R^2=0.99), the following dependence of the decomposition rate of carboplatin on the concentration of the present 1,1-cyclobutanedicarboxylic acid and on the temperature may be obtained from the equations /1-5/ and /1-6/: [formula]
wherein r is expressed in mol·m^−3·s^−1 and CCBDCA is expressed in mol·m^−3.
Based on the equation /1-7/, it is possible to calculate decomposition rates of carboplatin at the temperature of 25° C. and for different concentrations of 1,1-cyclobutanedicarboxylic acid: […]

`N.N.O=C([O-])C1(C(=O)[O-])CCC1.[Pt+2]` [carboplatin, cis-diammin-1,1-cyclobutanedicarboxylatoplatinum(II) complex]: the “increase of the decomposition rate of carboplatin” value in data set [1] (enhancement of temperature of 10° C.) is “approximately tenfold”. Moreover, the “decomposition rate of carboplatin (r)” value was 4.0 · 10^−9 mol·m^−3·s^−1 in data set [1] (storage 25° C./60% RH, CBDCA 0.017 mg·ml^−1); 4.0 · 10^−9 mol·m^−3·s^−1 in data set [1] (storage 25° C./60% RH, CBDCA 0.129 mg·ml^−1); 9.4 · 10^−9 mol·m^−3·s^−1 in data set [1] (storage 25° C./60% RH, CBDCA 1.189 mg·ml^−1); 2.2 · 10^−8 mol·m^−3·s^−1 in data set [1] (storage 25° C./60% RH, CBDCA 14.804 mg·ml^−1); 4.9 · 10^−8 mol·m^−3·s^−1 in data set [1] (storage 35° C./60% RH, CBDCA 0.017 mg·ml^−1); 5.1 · 10^−8 mol·m^−3·s^−1 in data set [1] (storage 35° C./60% RH, CBDCA 0.129 mg·ml^−1). The “decomposition rate of carboplatin (r)” value is reported as 7.3 · 10^−8 mol·m^−3·s^−1 in data set [1] (storage 35° C./60% RH, CBDCA 1.189 mg·ml^−1) and 1.7 · 10^−7 mol·m^−3·s^−1 in data set [1] (storage 35° C./60% RH, CBDCA 14.804 mg·ml^−1). The “rate constant k, ratio” value in data set [2] is given as “approximately 200 times”. Also, the “calculated decomposition rate of carboplatin (r)” value is 4.48·10^−9 mol·m^−3·s^−1 in data set [3] (CBDCA 0.005 mg/ml), 4.58·10^−9 mol·m^−3·s^−1 in data set [3] (CBDCA 0.150 mg/ml (as in Ribocarbol L)) and 4.65·10^−9 mol·m^−3·s^−1 in data set [3] (CBDCA 0.250 mg/ml (lower limit of EP 642 792)). Further, the rate increase in data set [3] (CBDCA 0.150 mg/ml versus 0.005 mg/ml) is listed as 2.2%; in data set [3] (CBDCA 0.250 mg/ml versus 0.005 mg/ml), 4%. Moreover, in data set [3] (Arrhenius equation, from rates at 25 and 35° C.), the “activation energy EA of carboplatin decomposition” value is 190 000 J·mol^−1.
